According to patent publication US3974140A, “Ureidoacetamido-penicillins” (Bayer Aktiengesellschaft, priority 1970, dated 1976):

Tests used:
Assay in all cases: MIC, liquid medium test tube series dilution test
Psdm. aerug. Bonn = format: cell-based, Pseudomonas aerug.; settings: 24 hours, 37°C
Description: (§1) The chemotherapeutic activity of the new penicillins was tested in vivo and in vitro. The in vitro inhibition values (MIC = minimum inhibition concentration (see Tables 1 and 2) were determined in a liquid medium in the test tube series dilution test, with readings being taken after 24 hours' incubation at 37°C. The MIC is indicated by the non-turbid test tube in the dilution series. A complete medium of the following composition was used as the nutrient medium:
(§2) The figures quoted in the Examples for the effectiveness against certain bacteria (units/ml) are minimum inhibitory concentrations in the test tube series dilution test after 24 hours' incubation.

Psdm. aerug. Walter = format: cell-based, Pseudomonas aerug.; settings: 24 hours, 37°C
Description: as §1, §2

Klebsiella K 10 = format: cell-based; settings: Klebsiella K 10, 24 hours, 37°C
Description: as §1, §2

E. coli A 261 = format: cell-based; settings: E. coli A 261, 24 hours, 37°C
Description: as §1, §2

[1] = system: Streptoc. faec. ATCC 9790; format: cell-based; settings: Strep. faec. (Enterococcus) ATCC 9790, 24 hours, 37°C
Description: as §1, §2

E. coli 183/58 = format: cell-based; settings: E. coli 183/58, 24 hours, 37°C
Description: as §1, §2

E. coli 14 = format: cell-based; settings: E. coli 14, 24 hours, 37°C
Description: as §1, §2

Klebsiella 63 = format: cell-based; settings: Klebsiella 63, 24 hours, 37°C
Description: as §1, §2

E. coli C 165 = format: cell-based; settings: E. coli C 165, 24 hours, 37°C
Description: as §1, §2

Proteus vulg. 1017 = format: cell-based, Proteus vulgaris; settings: Proteus vulg. 1017, 24 hours, 37°C
Description: as §1, §2

Proteus vulg. 3400 = format: cell-based, Proteus vulgaris; settings: Proteus vulg. 3400, 24 hours, 37°C
Description: as §1, §2

Staph. aureus 133 = format: cell-based, Staphylococcus aureus; settings: Staph. aureus 133, 24 hours, 37°C
Description: as §1, §2

Structure (SMILES)	MIC (Psdm. aerug. Bonn)	MIC (Psdm. aerug. Walter)	MIC (Klebsiella K 10)	MIC (E. coli A 261)	MIC [1]	MIC (E. coli 183/58)	MIC (E. coli 14)	MIC (Klebsiella 63)	MIC (E. coli C 165)	MIC (Proteus vulg. 1017)	MIC (Proteus vulg. 3400)	MIC (Staph. aureus 133)
CN(C(=O)CCCCl)C(=O)N[C@@H](C(=O)N[C@@H]1C(=O)N2[C@@H]1SC(C)(C)[C@@H]2C(=O)O)c1ccccc1 [Example 2, Sodium D(-)-α-(3-γ-chlorobutyryl-3-methyl-ureido)-benzylpenicillin]	100 units/ml	100 units/ml	50 units/ml	400 units/ml	200 units/ml	12.5 units/ml	3.1 units/ml	50 units/ml	12.5 units/ml	100 units/ml	25 units/ml	~ 0.8 units/ml
CN(C(=O)CCCCl)C(=O)N[C@@H](C(=O)N[C@@H]1C(=O)N2[C@@H]1SC(C)(C)[C@@H]2C(=O)O)c1ccccc1 [Example 24, Sodium D(-)-α-(3-γ-chlorobutyryl-3-methyl-ureido)-benzylpenicillin]	100 units/ml	100 units/ml	50 units/ml	> 400 units/ml	200 units/ml	25 units/ml	6.3 units/ml	100 units/ml	25 units/ml	100 units/ml	50 units/ml	~ 1.6 units/ml
C=CCN(C(=O)NC(C(=O)N[C@@H]1C(=O)N2[C@@H]1SC(C)(C)[C@@H]2C(=O)O)c1ccc(OC)cc1)C(=O)c1ccccc1 (stereo partly drawn) [Example 14, Sodium D,L-α-(3-benzoyl-3-allyl-ureido)-4-methoxybenzylpenicillin]	100-500 units/ml	100-500 units/ml	20-100 units/ml	> 500 units/ml	100-500 units/ml	20-100 units/ml	4-20 units/ml	20-100 units/ml	20-100 units/ml	100-500 units/ml	~ 100 units/ml	0.8-4 units/ml
CCC(=O)N(C(=O)N[C@@H](C(=O)N[C@@H]1C(=O)N2[C@@H]1SC(C)(C)[C@@H]2C(=O)O)c1ccccc1)c1ccccc1 [Example 143, Sodium D(-)-α-(3-propionyl-3-phenyl-ureido)-benzylpenicillin]	200 units/ml	200 units/ml	50 units/ml	> 400 units/ml	100 units/ml	50 units/ml	12.5 units/ml	100 units/ml	50 units/ml	200 units/ml	400 units/ml	< 0.8 units/ml
CN(C(=O)N[C@@H](C(=O)N[C@@H]1C(=O)N2[C@@H]1SC(C)(C)[C@@H]2C(=O)O)c1ccccc1)C(=O)c1ccc(Cl)cc1Cl [Example 142, Sodium D(-)-α-(3-[2,4-dichlorobenzoyl]-3-methyl-ureido)-benzylpenicillin]	25 units/ml	12.5 units/ml	12.5 units/ml	50 units/ml	25 units/ml	1.6 units/ml	0.8 units/ml	25 units/ml	3.1 units/ml	3.1 units/ml	12.5 units/ml	< 0.8 units/ml
C=CCN(C(=O)NC(C(=O)N[C@@H]1C(=O)N2[C@@H]1SC(C)(C)[C@@H]2C(=O)O)c1c(Cl)cccc1Cl)C(=O)c1ccccc1 (stereo partly drawn) [Example 15, Sodium D,L-α-(3-benzoyl-3-allyl-ureido)-2,6-dichlorobenzylpenicillin]	> 500 units/ml	> 500 units/ml	> 500 units/ml	> 500 units/ml	> 500 units/ml	100-500 units/ml	20-100 units/ml	> 500 units/ml	100-500 units/ml	> 500 units/ml	> 500 units/ml	0.8-4 units/ml
COC(=O)N(C)C(=O)NC(C(=O)N[C@@H]1C(=O)N2[C@@H]1SC(C)(C)[C@@H]2C(=O)O)c1c(Cl)cccc1Cl (stereo partly drawn) [Example 9, Sodium D,L-α-(3-methoxycarbonyl-3-methyl-ureido)-2,6-dichlorobenzylpenicillin]	> 500 units/ml	> 500 units/ml	> 500 units/ml	> 500 units/ml	~ 500 units/ml	100-500 units/ml	20-100 units/ml	> 500 units/ml	100-500 units/ml	> 500 units/ml	> 500 units/ml	0.8-4 units/ml
Cc1noc(C)c1C(=O)N(C)C(=O)N[C@@H](C(=O)N[C@@H]1C(=O)N2[C@@H]1SC(C)(C)[C@@H]2C(=O)O)c1ccccc1 [Example 38]	20-100 units/ml	20-100 units/ml	20-100 units/ml	> 500 units/ml	100-500 units/ml	4-20 units/ml	0.8-4 units/ml	20-100 units/ml	4-20 units/ml	20-100 units/ml	20-100 units/ml	< 0.8 units/ml
Cc1ccc(C(=O)N(C)C(=O)N[C@@H](C(=O)N[C@@H]2C(=O)N3[C@@H]2SC(C)(C)[C@@H]3C(=O)O)c2ccccc2)cc1[N+](=O)[O-] [Example 70, Sodium D(-)-α-(3-[m-nitro-p-methyl]-benzoyl-3-methyl-ureido)-benzylpenicillin]	12.5 units/ml	100 units/ml	25 units/ml	200 units/ml	100 units/ml	3.12 units/ml	3.12 units/ml	12.5 units/ml	6.25 units/ml	12.5 units/ml	12.5 units/ml	< 0.78 units/ml
COC(=O)N(C)C(=O)NC(C(=O)N[C@@H]1C(=O)N2[C@@H]1SC(C)(C)[C@@H]2C(=O)O)c1ccc(OC)cc1 (stereo partly drawn) [Example 18, Sodium D,L-α-(3-methoxycarbonyl-3-methyl-ureido)-4-methoxybenzylpenicillin]	100-500 units/ml	100-500 units/ml	20-100 units/ml	> 500 units/ml	~ 100 units/ml	20-100 units/ml	4-20 units/ml	20-100 units/ml	20-100 units/ml	100-500 units/ml	100-500 units/ml	0.8-4 units/ml
CCOC(=O)N(C)C(=O)NC(C(=O)N[C@@H]1C(=O)N2[C@@H]1SC(C)(C)[C@@H]2C(=O)O)c1ccc(SC)cc1 (stereo partly drawn) [Example 35, Sodium α-(3-ethoxycarbonyl-3-methyl-ureido)-4-methylthiobenzylpenicillin]	4-20 units/ml	approx. 20 units/ml	20-100 units/ml	100-500 units/ml	20-100 units/ml	4-20 units/ml	approx. 4 units/ml	20-100 units/ml	20-100 units/ml	20-100 units/ml	20-100 units/ml	< 0.8 units/ml
CN(C(=O)NC(C(=O)N[C@@H]1C(=O)N2[C@@H]1SC(C)(C)[C@@H]2C(=O)O)c1c(Cl)cccc1Cl)C(=O)c1ccccc1 (stereo partly drawn) [Example 31, Sodium α-(3-benzoyl-3-methyl-ureido)-2,6-dichlorobenzyl-penicillin]	approx. 500 units/ml	100-500 units/ml	100-500 units/ml	> 500 units/ml	> 500 units/ml	20-100 units/ml	20-100 units/ml	100-500 units/ml	100-500 units/ml	100-500 units/ml	100-500 units/ml	0.8-4 units/ml
CN(C(=O)CCCCl)C(=O)N[C@@H](C(=O)N[C@@H]1C(=O)N2[C@@H]1SC(C)(C)[C@@H]2C(=O)O)c1ccccc1 [Example 88, Sodium D(-)-α-(3-γ-chlorobutyryl-3-methyl-ureido)-benzylpenicillin]	25 units/ml	50 units/ml	50 units/ml	400 units/ml	50 units/ml	3.12 units/ml	1.56 units/ml	25 units/ml	6.25 units/ml	12.5 units/ml	6.25 units/ml	< 0.78 units/ml
